From US12012404B2, “Pyrimidoheterocyclic compounds and application thereof” (D3 BIO (WUXI) CO., LTD., priority 2020, dated 2024)

Legend:
Type in all cases: in vitro ADME
[1] = tested on: plasma protein of beagle dogs; test: Protein binding rate by equilibrium dialysis, beagle dogs plasma; conditions: 2 μM, dialysis 4 hours
Protocol: (§1) Purpose of the assay: Protein binding rate of the assay compounds in plasma of CD-1 mice, SD rats, beagle dogs, cynomolgus monkeys and human was determined by equilibrium dialysis.
(§2) Procedure of the assay: Plasma samples with a compound concentration of 2 μM were prepared using plasma of the above five species, placed in a 96-well equilibrium dialysis device, and dialyzed with phosphate buffer solution at 37±1° C. for 4 hours. Warfarin was used as the control compound in this assay. The concentrations of the assay compounds in plasma and dialysis buffer were determined by LC-MS/MS method.

[2] = In vitro stability in liver microsomes, human; conditions: 0.5 mg/mL
Protocol: Purpose of the assay: Metabolic stabilities of the assay compounds in liver microsomes of CD-1 mice, SD rats, beagle dogs, cynomolgus monkeys, and human were assayed, respectively.
Procedure of the assay: Two 96-well incubation plates were prepared and named T60 incubation plate and NCF60 incubation plate, respectively. 445 μL of microsomal working solutions (liver microsomal protein concentration of 0.56 mg/mL) were added to the T60 incubation plate and the NCF60 incubation plate, respectively, and then the above incubation plates were pre-incubated in a 37° C. water bath for about 10 minutes.
After the pre-incubation, 5 μL of working solutions of the assay sample or the control compound were added to the T60 incubation plate and the NCF60 incubation plate, respectively, and the mixture was mixed well. 50 μL of potassium phosphate buffer was added to each well of the NCF60 incubation plate to initiate the reaction. 180 μL of stop solution (200 ng/mL tolbutamide and 200 ng/mL labetalol in acetonitrile) and 6 uL of NADPH regeneration system working solution were added to the T0 stop plate, and 54 μL of sample was transferred from T60 incubation plate to T0 stop plate (generation of TO sample). The reaction was initiated by adding 44 μL of NADPH regeneration system working solution to each well of the T60 incubation plate. Only 54 μL of microsome working solution, 6 uL of NADPH regeneration system working solution and 180 μL of stop solution were added to the Blank plate. Therefore, in samples of the assay compound or the control compound, the final reaction concentration of compound, testosterone, diclofenac and propafenone was 1 μM, the concentration of liver microsomes was 0.5 mg/mL, and the final reaction concentrations of DMSO and acetonitrile in the reaction system were 0.01% (v/v) and 0.99% (v/v), respectively.
After an appropriate time (e.g., 5, 15, 30, 45 and 60 minutes) of incubation, 180 μL of stop solutions (200 ng/mL tolbutamide and 200 ng/mL labetalol in acetonitrile) were added to the sample wells of each stop plate, respectively. 60 μL of sample was removed from the T60 incubation plate to stop the reaction. All sample plates were shaken well and then centrifuged at 3220×g for 20 minutes. Then 80 μL of supernatant was taken out from each well, and diluted in 240 μL of pure water for liquid chromatography-tandem mass spectrometry analysis. All samples were injected and analyzed by liquid chromatography-tandem mass spectrometry.

[3] = Stability assay in plasma, human; conditions: 2 μM, 37° C.
Protocol: Purpose of the assay: Stabilities of the assay compounds in plasma of CD-1 mice and human were assayed, respectively.
Procedure of the assay: Cryopreserved plasma was thawed for 10-20 min. After the plasma was completely thawed, it was placed in a centrifuge and centrifuged at 3220×g for 5 min to remove any suspended matter and sediment in the plasma. 96-well incubation plates were prepared and named TO, T10, T30, T60, T120, respectively. 98 μL of blank plasmas of mouse, rat, canine, monkey and human were added to the corresponding incubation plates, then 2 μL of working solutions of the compound or the control compound were added to the corresponding plates in duplicate. All samples were incubated in a 37° C. water bath. The final incubation concentrations of the compound and the control compounds bisacodyl, enalapril maleate, procaine and probanthine were 2 μM, and the final organic phase content was 2.0%. At the end of incubation for each time point, the corresponding incubation plate was removed and 400 μL of a solution of 200 ng/mL of tolbutamide and labetalol in acetonitrile was added to each corresponding sample well to precipitate the protein. All sample plates were sealed and shaken well, and then centrifuged at 3220×g for 20 minutes. 50 μL of supernatant was taken out and diluted in 100 μL of ultrapure water. All samples were mixed well and then analyzed by LC/MS/MS.

[4] = Metabolic stability in hepatocytes, human
Protocol: Purpose of the assay: Metabolic stabilities of assay compounds in hepatocytes of CD-1 mice, SD rats, beagle dogs, cynomolgus monkeys, and human were assayed, respectively.
Procedure of the assay: Several 96-well sample precipitation plates were prepared and named T0, T15, T30, T60, T90, T120, TO-MC, T120-MC and blank substrates, respectively. The recovery medium and incubation medium were taken out in advance and placed in a 37° C. water bath for pre-heating. Cryopreserved hepatocytes were removed from the liquid nitrogen tank and immediately immersed in a 37° C. water bath (approximately 90 seconds). After the cryopreserved hepatocytes had thawed and loosened, they were poured into a centrifuge tube containing 40 mL of recovery medium, and the tube was gently inverted to allow the cells to be resuspended in the recovery medium. The cells were centrifuged at 100×g at room temperature for 5 min, and the supernatant was removed. The hepatocytes were resuspended in an appropriate volume of incubation medium, and the cell viability was calculated by Trypan Blue staining method. 198 μL of hepatocyte suspension (0.51×10^6 cells/mL) was added to the preheated incubation plate. For the culture medium control group, 198 μL of hepatocyte-free incubation medium was added to T0-MC and T120-MC incubation plate. All incubation plates were pre-incubated in a 37° C. incubator for 10 minutes. Then 2 μL of working solutions of the assay sample and the control compound were added, respectively, and the mixture was mixed well. The incubation plate was immediately put into the shaker in the incubator, and the reaction was initiated while starting the timer. For each time point of each compound, 2 duplicate samples were prepared. The incubation conditions were 37° C., saturated humidity, and 5% CO2. In the assay system, the final concentration of the assay sample was 1 μM, the final concentration of the control sample was 3 μM, the final concentration of hepatocytes was 0.5×10^6 cells/mL, and the final concentration of the total organic solvent was 0.96%, of which the final concentration of DMSO was 0.1%. At the end of the incubation for the corresponding time point, the incubation plate was taken out, and 25 μL of a mixture of compound and control compound with cells was added to the sample plate containing 125 μL of stop solution (200 ng/mL tolbutamide and labetalol in acetonitrile). For the Blank sample plate, 25 μL of hepatocyte-free incubation medium was added directly. After sealing, all sample plates were shaken on a shaker at 600 rpm for 10 minutes, and then centrifuged at 3220×g for 20 minutes. Supernatants of the assay sample and the control sample were diluted with ultrapure water at a ratio of 1:3. All samples were mixed well and analyzed by LC/MS/MS.

[5] = tested on: plasma protein of SD rats; test: Protein binding rate by equilibrium dialysis, SD rats plasma; conditions: for Protein unbound rate: SD rats plasma, 2 μM, dialysis 4 hours
Protocol: as §1, §2

C=C(F)C(=O)N1CCN(c2nc(OCC3CCCN3C)nc3c2COC(c2c(F)c(N)cc(C)c2C(F)(F)F)C3)CC1CC#N.Cl (single isomer, unassigned) [Compound 8B hydrochloride]
Protein unbound rate [1]: 6.0 | CLint(liver) ([2]; 1 μM): 20.7 mL/min/kg | CLint(mic) ([2]; 1 μM): 23 µL/min/mg | T1/2 ([2]; 1 μM): 1 h | Detection of assay compound content within 120 min [3]: 114% | CLint(hep) ([4]; 1 μM): 6.9 μL/min/10^6 | CLint(liver) ([4]; 1 μM): 19.3 mL/min/kg | T1/2 ([4]; 1 μM): 3.325 h | Protein unbound rate [5]: 9.8 | Plasma protein unbound rate PPB (Unbound %) ([5]; SD rats, as listed in PK Table 8): 9.8%

C=C(F)C(=O)N1CCN(c2nc(OC[C@@]34CCCN3C[C@H](F)C4)nc3c2COC(c2c(F)c(N)cc(C)c2C(F)(F)F)C3)C[C@@H]1CC#N (stereo partly shown) [Compound 17]
Protein unbound rate [1]: 3.3 | CLint(mic) ([2]; 1 μM): 67.9 µL/min/mg | CLint scaled at 1 μM [2]: 61.1 mL/min/kg | half-life at 1 μM [2]: 0.34 h | Detection of assay compound content within 120 min [3]: 93% | CLint(hep) ([4]; 1 μM): 13.9 μL/min/10^6 | half-life at 1 μM ([4]; cryopreserved hepatocytes): 1.66 h | CLint scaled at 1 μM ([4]; cryopreserved hepatocytes, read-out: CLint(liver)): 38.7 mL/min/kg | Protein unbound rate [5]: 4.8
